Source: patent publication US12037354B2, “Cyclic pantetheine derivatives and uses thereof” (VectivBio Comet AG, priority 2018, dated 2024)
Read-outs that look alike come from different tables or passages of the source.

Legend:
[1] = test system: Peripheral blood mononuclear cells co-cultured with venular endothelial cells (Sag system); experiment: BioMAP Sag system, Example 828; assay type: cell-based, human; conditions: Sag system, 1 uM
Method: (§1) The BioMAP platform (BioMAP® Diversity PLUS Panel from Eurofins) is an in vitro phenotypic profiling technology that screened the compounds of the present disclosure (hereafter indicated as test agents) in human primary cell-based systems modelling complex tissue and disease states. The BioMAP assays were performed using the Eurofin's BioMAP Technology Platform as (see references 1 to 13 in the example 824 section) to model different diseases on primary cell-based model systems. These systems consisted of either single primary cell types or co-culture cells. Adherent cell types were cultured or co-cultured in 96 or 384-well plates until confluence followed by the addition of compounds prepared in DMSO at a final concentration of ≤0.1%. In each cell-based system, primary cells from heathy donors (2-6 donors) were pooled and treated with compounds at 1 and 10 μM dose 1 h prior to stimulation and remain in culture as indicated in
(§2) Example 825, Example 826, Example 827, Example 828, Example 829, Example 830, Example 831, Example 832, Example 833, Example 834, Example 835, Example 836 and Example 837. For on the BioMAP® Diversity PLUS® Panel, please see the following references, which are incorporate herein.
Following the general procedure as described in Example 824, Peripheral blood mononuclear cells were co-cultured with venular endothelial cells and treated with soluble antigen (T-cell ligands) (Sag system) in the presence or absence of compounds to model autoimmune and chronic inflammation. Biomarkers read out were; MCP-1, CD38, CD40, E-selectin, CD69, IL-8, MIG, PBMC cytotoxicity, Proliferation and SRB.

[2] = test system: Venular Endothelial cells (HUVEC) (4H system); experiment: BioMAP 4H system, Example 826; assay type: cell-based, human
Method: as §1, §2
Following the general procedure as described in Example 824, Venular Endothelial cells (HUVEC) (4H system) were treated with IL-4 and histamine for 24 h to model Th2 driven allergy and autoimmunity in the presence or absence of compounds. Biomarkers read out were; MCP-1, Eotaxin-3. VCAM-1, P-selectin, uPAR (CD87), SRB and VEGFRII.

[3] = test system: Venular endothelial cells co-cultured with macrophages (Mphg system); experiment: BioMAP Mphg system, Example 836; assay type: cell-based, human
Method: as §1, §2
Following the general procedure as described in Example 824, Venular endothelial cells co-cultured with macrophages (Mphg system) and treated with TLR2 ligand for 24 h in the presence or absence of the compounds to mimic cardiovascular inflammation, restenosis and chronic inflammation. Biomarkers read out were; MCP-1, MIP-1α, VCAM-1, CD40, E-selectin, CD69, IL-8, IL-1α, M-CSF, sIL-10 and SRB.

[4] = test system: Peripheral blood mononuclear cells co-cultured with venular endothelial cells (HUVEC) (LPS system); experiment: BioMAP LPS system, Example 827; assay type: cell-based, human
Method: as §1, §2
Following the general procedure as described in Example 824, Peripheral blood mononuclear cells co-cultured with venular endothelial cells (HUVEC) (LPS system) were stimulated with LPS for 24 h in the presence or absence of compounds, to model cardiovascular disease and chronic inflammation. Biomarkers read out were; MCP-1, VCAM-1, Thrombomodulin, Tissue Factor, CD40, E-selectin, CD69, IL-8, IL-1α, M-CSF, sPGE2, SRB and TNFα.

[5] = test system: Coronary artery smooth muscle cells (CASM3C system); experiment: BioMAP CASM3C system, Example 832; assay type: cell-based, human
Method: as §1, §2
Following the general procedure as described in Example 824, Coronary artery smooth muscle cells (CASM3C system) were treated with IL-1β, TNFα and IFNγ for 24 h in the presence or absence of the compounds to model cardiovascular inflammation and restenosis. Biomarker reads out were; MCP-1, VCAM-1, Throbomodulin, Tissue factor, uPAR, IL-8, MIG, HLA-DR, IL-6, LDLR, M-CSF, PAI-1, Proliferation, SAA and SRB

[6] = test system: Peripheral blood mononuclear cells co-cultured with B-cells (BT system); experiment: BioMAP BT system, Example 829; assay type: cell-based, human; conditions: BT system; 10 uM
Method: as §1, §2
Following the general procedure as described in Example 824, Peripheral blood mononuclear cells were co-cultured with B-cells (BT system) were treated with either α-IgM and TCR ligands for 72 h in the presence or absence of the compounds to model asthma, allergy, oncology and autoimmunity. Biomarkers read out were; B-cell proliferation, PBMC cytotoxicity, secreted IgG, sIL-17A, sIL-17F, sIL-2, sIL-6 and s-TNFα.

[7] = test system: Dermal fibroblasts (HDF3CGF system); experiment: BioMAP HDF3CGF system, Example 833; assay type: cell-based, human; conditions: 1 uM
Method: as §1, §2
Following the general procedure as described in Example 824, Dermal fibroblasts (HDF3CGF system) were treated with IL-1β, TNFα and IFNγ, EGF, bFGF and PDGF-BB for 24 h in the presence or absence of the compounds to model fibrosis and chronic inflammation. Biomarkers read out were; MCP-1, VCAM-1, ICAM-1, Collagen-I, Collagen-III, IP-10, I-TAC, IL-8, MIG, EGFR, M-CSF, MMP-1, PAI-1, SRB, TIMP-1, TIMP-2 and proliferation was measured for 72 h.

[8] = test system: Keratinocytes co-cultured with dermal fibroblast (KF3CT system); experiment: BioMAP KF3CT system, Example 834; assay type: cell-based, human
Method: as §1, §2
Following the general procedure as described in Example 824, Keratinocytes were co-cultured with dermal fibroblast (KF3CT system) and treated with […], TNFα, IFNγ and TGFβ for 24 h in the presence or absence of the compounds to model psoriasis, dermatitis and skin biology. Biomarkers read out were; MCP-1, ICAM-1, IP-10, IL-8, MIG, IL-1α, MMP-9, PAI-1, SRB, TIMP-2, uPA.

[9] = test system: Bronchial epithelial cells co-cultured with dermal fibroblast (BF4T system); experiment: BioMAP BF4T system, Example 830; assay type: cell-based, human; conditions: 10 uM
Method: as §1, §2
Following the general procedure as described in Example 824, Bronchial epithelial cells were co-cultured with dermal fibroblast (BF4T system) and were treated with TNFα and IL-4 for 24 h in the presence or absence of the compounds to model asthma, allergy, fibrosis, lung inflammation. Biomarkers read out were; MCP-1, Eotaxin-3, VCAM-1, ICAM-1, CD90, IL-8, IL-1α, keratin 8/18, MMP-1, MMP-3, MMP-9, PAI-1, SRB, tPA, uPA.

[10] = test system: Venular Endothelial cells (HUVEC) (3C system); experiment: BioMAP 3C system, Example 825; assay type: cell-based, human
Method: as §1, with “In each cell-based system, primary cells from heathy donors (2-6 donors) were pooled and treated with compounds at 1 and 10 μM dose 1 h prior to stimulation and remain in culture as indicated in” left out
Following the general procedure as described in Example 824, Venular Endothelial cells (HUVEC) (3C system) were treated with IL-1β, TNFα, IFNγ for 24 h to model Th1 driven cardiovascular and chronic inflammation diseases in the presence or absence of the compounds. Biomarker read out were; Tissue Factor, ICAM-1, E-selectin, uPAR (CD87), IL-8, […], HLA-DR, proliferation and SRB (Sulfo-rhodamine i.e. staining for protein content).

HepG2 cells = experiment: Glucose uptake Glo Assay, Example 821; assay type: cell-based
Method: The effect of compounds from the present disclosure on glucose uptake was determined in HepG2 cells (ATCC, HB-8065) using the glucose uptake Glo Assay Kit (Promega, 11343 according to manufacturer instructions. HepG2 cells were cultured in complete DMEM-glucose media (Gibco) supplemented with 10% FBS (37° C. incubator with 5% CO2) and seeded in 96-well plates at 30,000 cells/well. After removing the complete media, 100 μL/well of serum-free, high-glucose DMEM media were added to the wells and incubated overnight (37° C. incubator with 5% CO2). Media was then replaced with 100 μl/well DPBS containing 0.6°/o BSA and starved for 1 hour. Next, DPBS was removed and 45 μl/well of insulin (100 nM) or compounds (10 μM-50 μM) were added to the wells and incubated for 10 minutes (37° C. incubator with 5% CO2). Insulin and compounds were prepared in DPBS with 0.6% BSA with a final DMSO concentration of 0.1%. Next, 5 μl of 2DG (10 mM) in DPBS were added per well and allowed to incubate for 20 minutes followed by addition of 25 μl stop buffer. 37.5 μl of the mixture were then transferred to a new plate and 12.5 μl of Neutralization buffer added to the wells. After, 50 μl of 2DG6P detection Reagent were added and incubated for 0.5-1 hour at room temperature. Luminescence was measured with 0.3-1 second integration on a luminometer.

Structure (SMILES): COC(=O)CCC(=O)CC(=O)SCCNC(=O)CCNC(=O)[C@@H]1OP(=O)(O)OCC1(C)C [Compound 6]
- % increase in MCP-1 [1]: ≥10%
- % decrease in MCP-1 ([2]; 4H system, 1 uM): ≥10%
- % decrease in VEGFRII ([2]; 4H system, 1 uM): ≥10%
- % decrease in MCP-1 ([2]; concentration tested 1 uM): ≥10%
- % decrease in VEGFRII ([2]; concentration tested 1 uM): ≥10%
- % decrease in α-SMA ([3]; procedure of Example 836, 1 uM): ≥10%
- % increase in MMP-1 ([3]; procedure of Example 836, 10 uM): ≥10%
- % decrease in M-CSF ([4]; Example 988, concentration tested 1 uM): ≥10%
- % decrease in IL-8 ([4]; LPS system, 1 uM): ≥10%
- % decrease in M-CSF ([4]; LPS system, 1 uM): ≥10%
- % decrease in Tissue Factor ([4]; LPS system, 1 uM): ≥10%
- % decrease in sTNFα ([4]; LPS system, 1 uM): ≥20%
- % decrease in Tissue Factor ([4]; concentration tested 1 uM): ≥10%
- % decrease in sTNFα ([4]; concentration tested 1 uM): ≥20%
- % decrease in IL-8 ([4]; procedure of Example 827, concentration tested 1 uM): ≥10%
- % decrease in HLA-DR ([5]; 1 uM): ≥10%
- % decrease in M-CSF ([5]; 1 uM): ≥10%
- % decrease in VCAM-1 ([5]; 1 uM): ≥10%
- % decrease in Thrombomodulin ([5]; 10 uM): ≥20%
- % decrease in sTNFα [6]: ≥10%
- % decrease in TIMP-1 [7]: ≥10%
- % increase in 72 Hour Proliferation [7]: ≥10%
- % decrease in MCP-1 ([8]; 10 uM (Example 927)): ≥10%
- % decrease in MCP-1 ([8]; 10 uM (Example 928)): ≥10%
- % increase in VCAM-1 [9]: ≥10%
- % decrease in IL-8 ([10]; 3C system, 1 uM): ≥10%
- % increase in Proliferation (HUVEC) ([10]; 3C system, 10 uM): ≥20%
- % increase in Proliferation (HUVEC) ([10]; concentration tested 10 uM): ≥20%
- % decrease in IL-8 ([10]; procedure of Example 825, concentration tested 1 uM): ≥10%

Structure (SMILES): CCOC(=O)CCC(=O)SCCNC(=O)CCNC(=O)[C@@H]1OP(=O)(N[C@@H](C)C(=O)OCC)OCC1(C)C (stereo partly shown) [Compound 206]
- % increase in sIL-6 [6]: ≥20%

Structure (SMILES): CC1(C)COP(=O)(O)O[C@H]1C(=O)NCCC(=O)NCCSC(=O)CC(=O)CCC(=O)O [Compound 3]
- activation at 10 µM (HepG2 cells; Homo sapiens, 20 min, 10 uM, read-out: % increase in Glucose Uptake): ≥ 10%
- % increase in Glucose Uptake (HepG2 cells; concentration tested 10 uM): ≥10%

Structure (SMILES): CCCCCCC(=O)SCCNC(=O)CCNC(=O)[C@@H]1OC(C)(C)OCC1(C)C [Compound 855, N-[2-(heptanoylsulfanyl)ethyl]-3-[[(4R)-2,2,5,5-tetramethyl-1,3-dioxan-4-yl]formamido]propanamide]
- activation at 50 µM (HepG2 cells; Homo sapiens, 20 min, 50 uM, read-out: % increase in Glucose Uptake): ≥ 30%
- % increase in Glucose Uptake (HepG2 cells; concentration tested 50 uM): ≥30%

Structure (SMILES): COC(=O)[C@H](C)NP1(=O)OCC(C)(C)[C@H](C(=O)NCCC(=O)NCCSC(=O)CC(C)=O)O1 (stereo partly shown) [Compound 157]
- activation at 50 µM (HepG2 cells; Homo sapiens, 20 min, 50 uM (Example 971), read-out: % increase in Glucose Uptake): ≥ 20%

Structure (SMILES): COC(=O)[C@H](C)NP1(=O)OCC(C)(C)[C@H](C(=O)NCCC(=O)NCCSC(=O)CCC(=O)O)O1 (stereo partly shown) [Compound 63]
- activation at 50 µM (HepG2 cells; Homo sapiens, 20 min, 50 uM (Example 967), read-out: % increase in Glucose Uptake): ≥ 30%

Structure (SMILES): CC1(C)COC(=O)O[C@H]1C(=O)NCCC(=O)NCCSC(=O)CC(=O)CCC(=O)OCC[N+](C)(C)C [Compound 460]
- activation at 50 µM (HepG2 cells; Homo sapiens, 20 min, 50 uM (Example 969), read-out: % increase in Glucose Uptake): ≥ 30%
